Laboratory results taken from article PMC5101480 (Scientific Reports, 2016).
Blank lines part the entries; values can stand above or below the molecule they belong to.

Experiments:
[1] = tested on: OP91 in HeLa TRex Flp-In cells; assay: Steady state OP91 (model MLP) levels on co-expression, quantitative western blotting; format: cell-based; conditions: co-expression of SGTA-V5 compared with K160E/R164E mutant or PEX19 control; normalised to tubulin; n = 3; 24 h transfection, 24 h induction
Excerpt: However, the ability of exogenous SGTA to enhance steady state MLP levels is offset when key residues of the carboxylate clamp, located in its TPR domain, are mutated. […] These finding are consistent with the proposal that a TPR based interaction of exogenous SGTA contributes to its effects on steady state MLP levels. […]
Figure 5 The SGTA-Rpn13 interaction alters steady state levels of a model MLP. […] Cells were then harvested directly into sample buffer and analysed by western blotting using primary antibodies to the N-terminus of opsin (OP91), the V5 tag (PEX19 and SGTA) or tubulin (loading control) in combination with secondary antibodies labelled with infrared dyes (LiCor) in order to produce quantitative signals as previously described. (B) OP91 signals were quantified (see Materials and Methods) and normalised to the tubulin loading control, values show standard errors for n = 3. […] (F) OP91 signals were quantified as described for (B), values show standard errors for n = 3. […]

[2] = tested on: OP91 in HeLa TRex Flp-In cells; conditions: overexpression of exogenous SGTA, model MLPs including OP91; cited from earlier work
Excerpt: However, the ability of exogenous SGTA to enhance steady state MLP levels is offset when key residues of the carboxylate clamp, located in its TPR domain, are mutated. We recapitulated this experiment ...

[3] = biological target: T1, TPR domain of SGTA (SGTA_TPR) (Homo sapiens, UniProt O43765); assay: Paramagnetic relaxation enhancement (PRE) of 15N-labelled SGTA_TPR by MTSL labelled K398C Rpn13_260-407; format: binding; conditions: MTSL at K398C; 15N-labelled SGTA_TPR to spin labelled Rpn13 1:1.2; pH 6.0; residues Met-102, Lys-103, Glu-105, Lys-137, Ser-170, Asn-173, Ser-197, Lys-200, Ile-201, Glu-203, Ser-211
T1 construct: thioredoxin A (TxA) fusion (N, cleaved yes); hexahistidine tag (N, cleaved yes); made in house; host or cells: E. coli BL21(DE3) Rosetta
T1 sequence (O43765 84-211): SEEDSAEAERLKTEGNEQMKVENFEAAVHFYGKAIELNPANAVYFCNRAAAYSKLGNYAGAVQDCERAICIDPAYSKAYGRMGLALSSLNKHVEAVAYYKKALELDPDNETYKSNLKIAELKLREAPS
Description: Using CSP experiments combined with available mutagenesis data, an initial model of a 1:1 complex was generated by a HADDOCK based semi-rigid, data-driven approach using the DMSLD pentapeptide coordinates from the solution NMR structure of Rpn13 (PDB accession code: 2KR0) and the crystal structure of SGTA_TPR (PDB accession code: 2VYI). The three lowest energy HADDOCK clusters of the SGTA_TPR/DMSLD complex were analysed (Figure S7 and Table S1). […] Proximity dependent line broadening of ^15N-labelled SGTA_TPR backbone amide signals was monitored for intermolecular paramagnetic relaxation enhancement (PRE) effects upon addition of MTSL labelled K398C Rpn13_260-407 (Fig. 4B). Significant line broadening effects were observed upon binding in backbone amide peaks of SGTA_TPR residues Met-102, Lys-103, Glu-105, Lys-137, Ser-170, Asn-173, Ser-197, Lys-200, Ile-201, Glu-203, Ser-211, all present on the lower edge of its concave surface lining the entry to the central groove (Fig. 4C,D).
The Rpn13 C-terminal residue Lys 398 was mutated to a cysteine for paramagnetic spin labelling studies. Mutant Rpn13_260-407 was treated with excess TCEP for 2 hours to ensure cysteines were reduced, followed by dialysis against 10 mM potassium phosphate pH 6.0, 100 mM NaCl buffer to remove excess TCEP. […]

Molecule: SGTA-V5: exogenous V5-tagged SGTA overexpressed from plasmid
change in steady state OP91 level [1]: three-fold increase | steady state MLP levels, earlier studies [2]: typically increases the steady-state levels of model MLPs

distance of paramagnetic probe from SGTA_TPR residues with significant line broadening [3]: ≤ 20 Å
B1: K398C Rpn13_260-407: Rpn13_260-407 K398C mutant carrying site-directed paramagnetic spin-label (MTSL) (protein, UniProt Q16186 260-407, looked up, variant K398C)
chain: QPIQLSDLQSILATMNVPAGPAGGQQVDLASVLTPEIMAPILANADVQERLLPYLPSGESLPQTADEIQNTLTSPQFQQALGMFSAALASGQLGPLMCQFGLPAEAVEAANKGDVEAFAKAMQNNAKPEQKEGDTKDKCDEEEDMSLD
modifications: MTSL spin label
